According to the supplement of paper PMC10331698:
± gives the standard deviation of the averaged measurements.

Tests used:
Assay in all cases: level (log10 ratio to DMSO vehicle control); higher = higher biomarker level / cell amount than vehicle control
Perfluoroheptanoic acid = compound: O=C(O)C(F)(F)C(F)(F)C(F)(F)C(F)(F)C(F)(F)C(F)(F)F [Perfluoroheptanoic acid]; conditions: in DMSO
Method: (§1)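 BioMAP Diversity Plus panel of 12 human primary cell co-culture systems (3C, 4H, LPS, SAg, BT, BF4T, BE3C, CASM3C, HDF3CGF, KF3CT, MyoF, Mphg). Compounds were added 1 h before stimulation and left for 24 h (MyoF 48 h; BT 72 h for soluble read-outs or 6 d for IgG). Biomarkers were read by ELISA, cytotoxicity by SRB, PBMC viability and proliferation by Alamar Blue. Each well value was divided by the mean of 8 DMSO control wells on the same plate and log10 transformed; duplicate blinded samples were tested at 4 concentrations.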

[1] = compound: O=C(O)C(F)(F)OC(F)(F)C(F)(F)OC(F)(F)F [Perfluoro-3,6-dioxaheptanoic acid]; conditions: in DMSO
Method: as §1

[2] = compound: FC(F)C(F)(F)COCC1CO1 [((2,2,3,3-Tetrafluoropropoxy)methyl)oxirane]; conditions: in DMSO
Method: as §1

[3] = compound: O=C(O)C(F)(F)C(F)(F)C(F)F [4H-Perfluorobutanoic acid]; conditions: in DMSO
Method: as §1

Perfluorodecanoic acid = compound: O=C(O)C(F)(F)C(F)(F)C(F)(F)C(F)(F)C(F)(F)C(F)(F)C(F)(F)C(F)(F)C(F)(F)F [Perfluorodecanoic acid]; conditions: in DMSO
Method: as §1

[4] = compound: OCCCC(F)(F)C(F)(F)C(F)(F)C(F)(F)C(F)(F)C(F)(F)C(F)(F)F [7:3 Fluorotelomer alcohol]; conditions: 6700 nM; in DMSO
Method: as §1

[5] = compound: NCC(F)(F)C(F)(F)C(F)(F)C(F)(F)C(F)(F)C(F)(F)C(F)(F)F [1H,1H-Perfluorooctylamine]; conditions: in DMSO
Method: as §1

Test System	level (log10) (Perfluoroheptanoic acid; 6700 nM)	level (log10) (Perfluoroheptanoic acid; 20000 nM)	level (log10) (Perfluoroheptanoic acid; 60000 nM)	level (log10) ([1]; 6700 nM)	level (log10) ([1]; 20000 nM)	level (log10) ([1]; 60000 nM)	level (log10) ([2]; 6700 nM)	level (log10) ([2]; 20000 nM)	level (log10) ([2]; 60000 nM)	level (log10) ([3]; 6700 nM)	level (log10) ([3]; 20000 nM)	level (log10) ([3]; 60000 nM)	level (log10) (Perfluorodecanoic acid; 6700 nM)	level (log10) (Perfluorodecanoic acid; 20000 nM)	level (log10) [4]	level (log10) ([5]; 6700 nM)	level (log10) ([5]; 20000 nM)	level (log10) ([5]; 60000 nM)
4H:CD62P/P-selectin	0.007 ± 0.018	0.0035 ± 0.016	0.0605 ± 0.05	-0.0245 ± 0.061	0.0025 ± 0.0092	-0.0185 ± 0.018	0.0275 ± 0.043	-0.0285 ± 0.087	-0.051 ± 0.071	-0.0185 ± 0.042	0.0005 ± 0.057	-0.011 ± 0.04	0.087 ± 0.0071	0.093 ± 0.033	0.04 ± 0.027	0.0025 ± 0.019	-0.028 ± 0.021	-0.0525 ± 0.047
BF4T:IL-1alpha	-0.0085 ± 0.023	-0.0015 ± 0.005	0.013 ± 0.0099	-0.0225 ± 0.035	-0.021 ± 0.024	-0.0105 ± 0.018	-0.0025 ± 0.00071	-0.009 ± 0.0099	0.021 ± 0.03	-0.02 ± 0.0014	-0.019 ± 0.014	0.0085 ± 0.012	-0.0335 ± 0.0035	-0.247 ± 0.28	-0.0045 ± 0.012	0.001 ± 0.0057	-0.0175 ± 0.0035	0.0065 ± 0.013
BF4T:MMP-9	0.0145 ± 0.016	0.0445 ± 0.022	0.103 ± 0.054	-0.028 ± 0.059	-0.028 ± 0.031	-0.0155 ± 0.022	0.0055 ± 0.005	-0.01 ± 0.0042	0.0065 ± 0.013	-0.018 ± 0.028	-0.0245 ± 0.036	-0.008 ± 0.038	-0.025 ± 0.0057	-0.282 ± 0.023	-0.0235 ± 0.018	0.0005 ± 0.0064	-0.0105 ± 0.015	0.002 ± 0.0028
3C:CXCL9/MIG	0.0115 ± 0.0035	-0.01 ± 0.0071	0.0135 ± 0.0078	-0.012 ± 0.0042	-0.0005 ± 0.019	0.0065 ± 0.005	0.0045 ± 0.013	-0.0065 ± 0.016	-0.0035 ± 0.0078	0.005 ± 0.0042	0.0035 ± 0.013	0.012 ± 0.0014	0.002	0.0005 ± 0.0064	-0.0135 ± 0.0035	0.0025 ± 0.0021	-0.021 ± 0.0042	-0.0205 ± 0.005
LPS:sPGE2	0.0295 ± 0.005	-0.0185 ± 0.022	-0.0285 ± 0.059	-0.0065 ± 0.047	-0.0395 ± 0.018	-0.006 ± 0.021	-0.0355 ± 0.032	-0.022 ± 0.011	-0.037 ± 0.014	0.0025 ± 0.054	-0.111 ± 0.054	-0.052 ± 0.013	-0.017 ± 0.025	-0.052 ± 0.0071	0.101 ± 0.03	-0.076 ± 0.025	-0.059 ± 0.031	-0.036 ± 0.013
SAg:CD38	-0.02 ± 0.0042	-0.001 ± 0.0057	-0.0225 ± 0.03	-0.0055 ± 0.052	-0.003 ± 0.047	-0.014 ± 0.024	-0.007 ± 0.0014	-0.006 ± 0.011	0.002 ± 0.023	0.008 ± 0.028	0.0195 ± 0.0021	0.017 ± 0.021	-0.009 ± 0.0014	-0.017 ± 0.0057	0.0245 ± 0.07	0.0005 ± 0.012	-0.0155 ± 0.00071	0.0065 ± 0.005
SAg:CCL2/MCP-1	-0.013 ± 0.0085	0.0215 ± 0.011	0.0215 ± 0.013	0.0125 ± 0.032	0.002 ± 0.035	-0.0025 ± 0.033	-0.0305 ± 0.046	-0.0185 ± 0.016	-0.014 ± 0.011	-0.011 ± 0.038	-0.0085 ± 0.04	-0.0065 ± 0.081	0.0065 ± 0.0064	-0.017 ± 0.0014	0.003 ± 0.0014	-0.0255 ± 0.012	-0.0145 ± 0.0064	-0.0035 ± 0.025
BT:sIL-2	-0.0105 ± 0.14	0.0035 ± 0.037	-0.008 ± 0.075	0.0035 ± 0.053	0.0105 ± 0.11	0.01 ± 0.072	0.084 ± 0.067	-0.005 ± 0.067	0.017 ± 0.13	0.0065 ± 0.054	-0.0275 ± 0.14	-0.056 ± 0.017	0.008 ± 0.092	0.118 ± 0.013	-0.037 ± 0.15	0.034 ± 0.079	0.022 ± 0.0085	-0.0465 ± 0.053
SAg:SRB	-0.0155 ± 0.013	0.001 ± 0.011	-0.0385 ± 0.016	-0.0085 ± 0.0035	-0.0175 ± 0.00071	-0.008 ± 0.0085	-0.007 ± 0.0057	-0.0075 ± 0.0064	-0.005 ± 0.014	-0.0055 ± 0.0078	-0.0145 ± 0.0021	0 ± 0.0028	-0.0035 ± 0.012	-0.008 ± 0.013	0.0045 ± 0.013	0.0005 ± 0.0035	-0.002 ± 0.014	-0.001 ± 0.027
4H:CD87/uPAR	0.0355 ± 0.042	-0.007 ± 0.054	0.061 ± 0.14	-0.0205 ± 0.023	-0.019 ± 0.011	-0.019 ± 0.018	-0.013	-0.0205 ± 0.03	-0.012 ± 0.0042	-0.0265 ± 0.025	-0.0065 ± 0.0035	-0.004 ± 0.044	0.0115 ± 0.021	0.0135 ± 0.0092	0.0105 ± 0.015	-0.0235 ± 0.023	-0.0215 ± 0.033	0.003 ± 0.014
SAg:CD40	-0.015 ± 0.027	-0.006 ± 0.0028	-0.021 ± 0.018	-0.0425 ± 0.088	-0.0475 ± 0.022	-0.063 ± 0.093	-0.0095 ± 0.018	-0.009 ± 0.0057	-0.0015 ± 0.0078	0 ± 0.0028	-0.056 ± 0.045	-0.028 ± 0.044	-0.0095 ± 0.021	-0.0305 ± 0.012	-0.031 ± 0.0057	0.001 ± 0.02	-0.0115 ± 0.011	-0.002 ± 0.011
BF4T:uPA	-0.017 ± 0.0057	-0.0115 ± 0.012	0.009 ± 0.0085	-0.04 ± 0.027	-0.011 ± 0.011	0.0005 ± 0.025	-0.003 ± 0.0028	-0.0005 ± 0.013	0.0135 ± 0.036	0.002 ± 0.016	0.019 ± 0.0014	0.0105 ± 0.0021	0.015 ± 0.011	-0.235 ± 0.043	-0.011 ± 0.0057	-0.0085 ± 0.012	-0.016 ± 0.016	-0.0155 ± 0.00071
4H:VEGFR2	0.016 ± 0.027	0.022 ± 0.013	0.012 ± 0.054	-0.035 ± 0.0099	-0.009 ± 0.048	-0.013 ± 0.0071	0.0095 ± 0.04	0.0065 ± 0.033	-0.0085 ± 0.026	-0.0255 ± 0.015	-0.005 ± 0.042	0.012 ± 0.05	-0.007 ± 0.017	-0.01 ± 0.02	0.014 ± 0.017	0.0225 ± 0.015	-0.012 ± 0.0042	-0.017 ± 0.0085
LPS:IL-1alpha	-0.002 ± 0.0057	-0.0265 ± 0.0078	0.006 ± 0.047	-0.0605 ± 0.0035	-0.0075 ± 0.0064	-0.0055 ± 0.036	-0.046 ± 0.0042	-0.026 ± 0.021	0.022 ± 0.024	-0.038 ± 0.0071	-0.02 ± 0.0085	-0.0065 ± 0.023	0.0275 ± 0.016	-0.0125 ± 0.0092	-0.0615 ± 0.013	-0.04 ± 0.038	0.0105 ± 0.022	-0.0025 ± 0.03
